Values quoted from earlier work as cited in patent US20060034872A1, “Compositions and methods for preventing abuse of orally administered medications” (priority 2002, published 2006).

How the values were obtained:
[1] = not given; remark: listed apart in the source
[2] = molecular target: T1, VR1 receptors of nociceptive afferent neurons (Homo sapiens, UniProt Q8NER1); conditions: for sensation elicited by application: applied to skin, oral or nasal mucosa, or subdermal tissue
T1 construct: selective stimulation of the VR1 receptors of nociceptive afferent neurons; from tissue; host or cells: nociceptive afferent neurons in vivo (skin, oral/nasal mucosa, airways, paravenous tissue)

[3] = molecular target: T2, peripheral VR1 receptors (Homo sapiens, UniProt Q8NER1)
T2 construct: from tissue

[4] = molecular target: T1, VR1 receptors of nociceptive afferent neurons; conditions: ingestion; as little as
[5] = molecular target: T3, VR1 receptors (Homo sapiens, UniProt Q8NER1)
T3 construct: selective stimulation of the VR1 receptors of nociceptive afferent neurons; from tissue; host or cells: nociceptive afferent neurons in vivo (skin, oral/nasal mucosa, airways, paravenous tissue)

[6] = long term intranasal, 0.15 mg per nostril every 2-3 days, total dose 1.05 mg
[7] = repeated intravesical instillation, 1-2 mM, over five years
[8] = molecular target: T1, VR1 receptors of nociceptive afferent neurons; conditions: nasal instillation
[9] = molecular target: T4, bronchial VR1 (Homo sapiens, UniProt Q8NER1); conditions: inhaled, 10^−3-10^−8M solutions
T4 construct: selective stimulation of the VR1 receptors of nociceptive afferent neurons; from tissue; host or cells: nociceptive afferent neurons in vivo (skin, oral/nasal mucosa, airways, paravenous tissue)
T4 sequence (Q8NER1 whole entry): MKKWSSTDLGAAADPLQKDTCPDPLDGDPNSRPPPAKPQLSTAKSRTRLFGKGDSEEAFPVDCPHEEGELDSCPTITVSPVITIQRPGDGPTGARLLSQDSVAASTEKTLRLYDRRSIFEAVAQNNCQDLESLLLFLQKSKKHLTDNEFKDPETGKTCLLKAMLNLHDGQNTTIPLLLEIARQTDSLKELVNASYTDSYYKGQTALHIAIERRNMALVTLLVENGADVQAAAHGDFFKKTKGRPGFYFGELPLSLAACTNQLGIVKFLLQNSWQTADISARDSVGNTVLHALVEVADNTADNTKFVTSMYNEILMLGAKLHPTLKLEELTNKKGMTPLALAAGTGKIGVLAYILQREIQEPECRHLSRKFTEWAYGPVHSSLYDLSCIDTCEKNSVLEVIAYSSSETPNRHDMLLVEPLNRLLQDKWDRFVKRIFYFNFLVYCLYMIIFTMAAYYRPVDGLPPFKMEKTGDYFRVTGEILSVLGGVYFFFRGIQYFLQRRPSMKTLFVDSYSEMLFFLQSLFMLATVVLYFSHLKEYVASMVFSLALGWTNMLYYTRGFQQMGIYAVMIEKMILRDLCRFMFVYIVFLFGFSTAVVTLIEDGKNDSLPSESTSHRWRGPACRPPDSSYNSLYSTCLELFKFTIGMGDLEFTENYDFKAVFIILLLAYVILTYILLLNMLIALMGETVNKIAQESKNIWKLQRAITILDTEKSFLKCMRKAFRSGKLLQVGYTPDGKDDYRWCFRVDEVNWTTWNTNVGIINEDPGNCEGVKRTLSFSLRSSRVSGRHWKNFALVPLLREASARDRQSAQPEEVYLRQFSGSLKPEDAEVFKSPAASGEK

T3 sequence (Q8NER1 whole entry): as above
T1 sequence (Q8NER1 whole entry): as above
T2 sequence (Q8NER1 whole entry): as above

## COc1ccc2c3c1O[C@H]1C(=O)CC[C@@]4(O)[C@@H](C2)N(C)CC[C@]314 [oxycodone]
In vivo
  biological and therapeutic half-lives: very short
Oral and intranasal administration
  bioavailability: high

## CCCCCCCC/C=C\CCCCCCCC(=O)NCc1ccc(O)c(OC)c1 [olvanil]
[1]; in vivo
  first pass metabolism: subject to first pass metabolism

## C=C(C)[C@]12C[C@@H](C)[C@@]34O[C@](Cc5ccccc5)(O[C@@H]1[C@@H]3C=C(COC(=O)Cc1ccc(O)c(OC)c1)C[C@]1(O)C(=O)C(C)=C[C@@H]41)O2 [resiniferatoxin]
[2]
  sensation elicited by application: burning pain

## COc1cc(CNC(=O)CCCC/C=C/C(C)C)ccc1O [capsaicin]
[3]; humans
  maximum tolerated dose (MTD): approximately 4 μg/kg
[3]; injection directly into the superior vena cava
  dose producing raw, burning sensation in chest, face, rectum and extremities: > 0.5 µg/kg
[4]
  amount ingested after which tongue and throat irritation occurs: 3 ppm
[5]; injected directly into a vein, up to 650 μM
  pain when injected directly into a vein: does not cause pain
[5]; intradermal injection
  pain when injected intradermally: very severe pain
[5]; paravenous tissue
  low capsaicin doses to which paravenous tissue is highly sensitive: 0.3 to 6.5 µM
[6]
  histological abnormalities: no histological abnormalities
[2]
  sensation elicited by application: burning pain
[2]; dermal cream containing 0.075% capsaicin
  sensation following application of dermal cream: burning pain sensation
[1]; oral administration
  absorption from the gastrointestinal tract: readily absorbed
  metabolism in the liver: almost completely metabolized
[7]
  pathological tissue changes: did not result in pathological tissue changes
[8]
  amount instilled giving nasal irritation and rhinorrhea: 75 to 150 µg
[9]
  immediate effect of inhalation: sneezing, coughing, and airway constriction
